Results on 32 compounds are retold here after patent publication US11084814B2, “Pyrido[3, 4-d]pyrimidine derivative and pharmaceutically acceptable salt thereof” (Teijin Pharma Limited, priority 2016, dated 2021).

One assay deals with T1, CDK2/cyclin A2 (Homo sapiens, UniProt P24941).
T1 construct: purchased Carna Biosciences, Inc. QS S Assist CDK2/Cyclin A2_FP Kit
As to the kind of experiment: Human CDK2/cyclin A2 inhibitory activity (QS S Assist CDK2/Cyclin A2_FP Kit, IMAP fluorescent polarization). In kind it is biochemical. The note with it: read-out: CDK2 Activity symbol. The procedure:
Human CDK2/Cyclin A2 Inhibitory Activity
Each compound was analyzed for CDK2/cyclin A2 inhibitory activity with an assay kit (QS S Assist CDK2/Cyclin A2_FP Kit, available from Carna Biosciences, Inc.). This assay kit determines kinase activity on the basis of the IMAP technology by Molecular Devices. Specifically, the kinase activity is determined through quantification of a variation in fluorescent polarization caused by binding of a kinase-phosphorylated fluorescent substance to an IMAP-binding reagent.
An assay buffer was prepared by 10-fold dilution of the 10× assay buffer attached to the kit with distilled water, and each solution was prepared with the assay buffer. The assay buffer contained 20 mM HEPES (pH 7.4), 0.01% Tween 20, and 2 mM dithiothreitol. A test compound solution was prepared by dilution of the test compound with dimethyl sulfoxide (DMSO) to a concentration 100 times higher than the final concentration and then 25-fold dilution with the assay buffer to a concentration four times higher than the final concentration. An ATP/substrate/Metal solution was prepared by five-fold dilution of the 5×ATP/substrate/Metal solution attached to the kit with the assay buffer. An enzyme solution was prepared by dilution of the CDK2/cyclin A2 attached to the kit with the assay buffer to a concentration twice higher than the final concentration (final concentration of CDK2/cyclin A2: 2.5 ng/well). A detection reagent was prepared by five-fold dilution of 5×IMAP-binding buffer A with distilled water and 400-fold dilution of the IMAP-binding reagent with the diluted buffer.
(§1) The test compound solution (5 μL/well) and the ATP/substrate/Metal solution (5 μL/well) were added to a 384-well plate, and the enzyme solution or the assay buffer (10 μL/well) was added to the plate (total amount of the reaction mixture: 20 μL/well) for initiation of enzymatic reaction. […] The reaction was performed at room temperature for 60 minutes, and the detection reagent (60 μL/well) was then added to the plate, followed by further reaction for 30 minutes at room temperature under light shielding conditions. Subsequently, fluorescent polarization was determined with a microplate reader at an excitation wavelength of 485 nm and an emission wavelength of 535 nm.
The percent inhibition of enzyme activity was calculated for each test compound (note: enzyme activity=100% in the case of addition of the enzyme solution and addition of DMSO instead of the test compound solution, whereas enzyme activity […] in the case of addition of the assay buffer instead of the enzyme solution and addition of DMSO instead of the test compound solution). The percent inhibition of enzyme activity was fitted to a dose-response curve, to determine a 50% inhibitory concentration against CDK2/cyclin A2.
In each table, “+++” corresponds to IC50<10 nM, “++” 10 nM≤IC50<100 nM, and “+” 100 nM≤IC50.

A further assay deals with T2, CDK4/cyclin D3 (Homo sapiens, UniProt P11802).
T2 construct: purchased Carna Biosciences, Inc. QS S Assist CDK4/Cyclin D3_FP Kit
As to the kind of experiment: Human CDK4/cyclin D3 inhibitory activity (QS S Assist CDK4/Cyclin D3_FP Kit, IMAP fluorescent polarization). The assay is classed as biochemical. The note with it: read-out: CDK4 Activity symbol. The procedure:
Human CDK4/Cyclin D3 Inhibitory Activity
Each compound was analyzed for CDK4/cyclin D3 inhibitory activity with an assay kit (QS S Assist CDK4/Cyclin D3_FP Kit, available from Carna Biosciences, Inc.). This assay kit determines kinase activity on the basis of the IMAP technology by Molecular Devices. Specifically, the kinase activity is determined through quantification of a variation in fluorescent polarization caused by binding of a kinase-phosphorylated fluorescent substance to an IMAP-binding reagent.
Each solution was prepared with the 10× assay buffer attached to the kit or a separately prepared assay buffer having the same composition as the assay buffer attached to the kit. An assay buffer was prepared by 10-fold dilution of the 10× assay buffer with distilled water. The assay buffer contains 20 mM HEPES (pH 7.4), 0.01% Tween20, and 2 mM dithiothreitol. A test compound solution was prepared by dilution of the test compound with dimethyl sulfoxide (DMSO) to a concentration 100 times higher than the final concentration and then 25-fold dilution with the assay buffer to a concentration four times higher than the final concentration. An ATP/substrate/Metal solution was prepared by five-fold dilution of the 5×ATP/substrate/Metal solution attached to the kit with the assay buffer. An enzyme solution was prepared by dilution of the CDK4/cyclin D3 attached to the kit with the assay buffer to a concentration twice higher than the final concentration (final concentration of CDK4/cyclin D3: 12.5 to 25 ng/well). A detection reagent was prepared by five-fold dilution of each of 5×IMAP-binding buffer A and 5×IMAP-binding buffer B with distilled water, mixing of IMAP-binding buffer A with IMAP-binding buffer B at a ratio of 85:15, and 400-fold dilution of the IMAP-binding reagent with the mixed buffer.
as §1, with “for 45” for “for 60”
The percent inhibition of enzyme activity was calculated for each test compound (note: enzyme activity=100% in the case of addition of the enzyme solution and addition of DMSO instead of the test compound solution, whereas enzyme activity […] in the case of addition of the assay buffer instead of the enzyme solution, and addition of DMSO instead of the test compound solution). The percent inhibition of enzyme activity was fitted to a dose-response curve, to determine a 50% inhibitory concentration against CDK4/cyclin D3.
In each table, “+++” corresponds to IC50<10 nM. “++” 10 nM […] IC50<100 nM, and “+” 100 nM≤IC50.

T2 sequence (P11802 whole entry): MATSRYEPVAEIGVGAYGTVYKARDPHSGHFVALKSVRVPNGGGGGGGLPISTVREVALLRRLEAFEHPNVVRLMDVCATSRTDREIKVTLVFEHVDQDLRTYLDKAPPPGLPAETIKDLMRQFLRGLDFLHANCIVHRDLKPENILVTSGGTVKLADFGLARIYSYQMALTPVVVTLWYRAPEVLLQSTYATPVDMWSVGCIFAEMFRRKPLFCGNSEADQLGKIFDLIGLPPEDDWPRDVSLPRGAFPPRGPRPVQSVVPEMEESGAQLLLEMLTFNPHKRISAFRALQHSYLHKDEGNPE
T2 sequence (P30281 whole entry partner): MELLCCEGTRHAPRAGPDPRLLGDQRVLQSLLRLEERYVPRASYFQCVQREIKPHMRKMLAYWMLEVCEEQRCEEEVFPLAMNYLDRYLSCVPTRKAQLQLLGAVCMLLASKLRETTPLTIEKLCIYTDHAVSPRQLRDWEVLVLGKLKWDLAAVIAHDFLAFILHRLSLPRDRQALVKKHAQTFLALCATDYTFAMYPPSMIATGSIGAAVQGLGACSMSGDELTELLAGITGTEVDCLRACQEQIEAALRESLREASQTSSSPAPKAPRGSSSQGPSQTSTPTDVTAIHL

As to `C[C@@H](O)c1cc2cnc(Nc3ccc4c(n3)CCN(C(=O)[C@@H]3C[C@@H](O)CN3C)C4)nc2c(N2C3CCC2CC3)n1` [Compound 227], the IC50 on CDK2/cyclin A2 is ≥ 0.1 µM; at CDK4/cyclin D3, < 0.01 µM.
On to `C[C@@H](O)c1cc2cnc(Nc3ccc4c(n3)CCN(C(=O)[C@@H]3CCCNC3)C4)nc2c(N2CCCCC2)n1` [Compound 214], for which the IC50 on CDK2/cyclin A2 is ≥ 0.1 µM; on CDK4/cyclin D3, < 0.01 µM.
For the compound `CC(O)c1cc2cnc(Nc3ccc4c(n3)CC3CCC4N3CCO)nc2c(N2CCCCC2)n1` (stereo not shown) [Compound 280], the results for the IC50 on CDK2/cyclin A2 and at CDK4/cyclin D3 were ≥ 0.1 µM and 0.01 to 0.1 µM, respectively.
Take `Cc1nc(Nc2ncc3cc([C@@H](C)O)nc(N4CCCC4)c3n2)ccc1N1CCNCC1` [Compound 86]: the IC50 on CDK2/cyclin A2 was ≥ 0.1 µM; on CDK4/cyclin D3, < 0.01 µM.
In the same order, the values of `CN1CCN(c2ccc(Nc3ncc4cc(CO)nc(N5CCOCC5)c4n3)nc2)CC1` [Compound 1] are ≥ 0.1 µM and < 0.01 µM.
In the same order, the values of `C[C@@H](O)c1cc2cnc(Nc3ccc4c(n3)CCN(C(=O)CN3CCC3)C4)nc2c(N2C3CCC2CC3)n1` [Compound 230] are ≥ 0.1 µM and < 0.01 µM.
In the same order, the values of `C[C@@H](O)c1cc2cnc(Nc3ccc(CN4CCN(CCO)CC4)cn3)nc2c(N2CCC[C@@H](F)C2)n1` [Compound 199] are ≥ 0.1 µM and < 0.01 µM.
Regarding `CC[C@@H](O)c1cc2cnc(Nc3ccc(CN4CCN(CCO)CC4)cn3)nc2c(N2CCC[C@H]2C)n1` [Compound 247], the IC50 on CDK2/cyclin A2 was ≥ 0.1 µM; at CDK4/cyclin D3, < 0.01 µM.
Regarding `C[C@@H](O)c1cc2cnc(Nc3ccc4c(n3)CCN(C(=O)CN3CCC(O)CC3)C4)nc2c(N2C3CCC2CC3)n1` [Compound 262], the IC50 was ≥ 0.1 µM at CDK2/cyclin A2 and < 0.01 µM at CDK4/cyclin D3.
With `C[C@@H](O)c1cc2cnc(Nc3ccc4c(n3)CCN(C3CN(CCO)C3)C4)nc2c(N2CCCCC2)n1` [Compound 176], the IC50 was ≥ 0.1 µM at CDK2/cyclin A2 and < 0.01 µM at CDK4/cyclin D3.
As for `C[C@@H](O)c1cc2cnc(Nc3ccc(CN4CCN(CCO)CC4)cn3)nc2c(N2CCC(C)(C)C2)n1` [Compound 102], the IC50 on CDK2/cyclin A2 was ≥ 0.1 µM; at CDK4/cyclin D3 it was < 0.01 µM.
In the same order, the values of `C[C@@H](O)c1cc2cnc(Nc3ccc(CN4CCN(C)CC4)cn3)nc2c(N2CC[C@H](F)C2)n1` [Compound 117] are ≥ 0.1 µM and < 0.01 µM.
In the same order, the values of `C[C@@H](O)c1cc2cnc(Nc3ccc(CN4CCN(C)CC4)cn3)nc2c(N2CCCCCC2)n1` [Compound 158] are ≥ 0.1 µM and < 0.01 µM.
In the same order, the values of `C[C@@H](O)c1cc2cnc(Nc3ccc4c(n3)CCN(C(=O)C3CCN(C)CC3)C4)nc2c(N2CCCCC2)n1` [Compound 149] are ≥ 0.1 µM and < 0.01 µM.
Take `OCc1cc2cnc(Nc3ccc(CN4CCNCC4)cn3)nc2c(N2CCCCC2)n1` [Compound 108]: the IC50 on CDK2/cyclin A2 was ≥ 0.1 µM; on CDK4/cyclin D3, < 0.01 µM.
The matching figures for `C[C@@H](O)c1cc2cnc(Nc3ccc(C(=O)N4CCCN(C)CC4)cn3)nc2c(N2CCCCC2)n1` [Compound 304]: 0.01 to 0.1 µM and < 0.01 µM.
The matching figures for `C[C@@H](O)c1cc2cnc(Nc3ccc(C(=O)N4CCN(CCO)CC4)cn3)nc2c(N2CCCCC2)n1` [Compound 308]: ≥ 0.1 µM and < 0.01 µM.
On to `C[C@@H](O)Cc1cc2cnc(Nc3ccc4c(n3)CCN(CCO)C4)nc2c(N2CCCCC2)n1` [Compound 170], for which the IC50 is ≥ 0.1 µM at CDK2/cyclin A2 and 0.01 to 0.1 µM at CDK4/cyclin D3.
In the same order, the values of `CC(O)c1cc2cnc(Nc3ccc(CN4CCN(CCO)CC4)cn3)nc2c(N2CC(C)C(C)C2)n1` (stereo not shown) [Compound 113] are ≥ 0.1 µM and < 0.01 µM.
As for `CC(O)c1cc2cnc(Nc3ccc(N4CCNCC4=O)cn3)nc2c(N2CCCCC2C)n1` (stereo not shown) [Compound 303], the values for the IC50 at CDK2/cyclin A2 and at CDK4/cyclin D3 were ≥ 0.1 µM and < 0.01 µM, respectively.
Turning to `C[C@@H](CO)c1cc2cnc(Nc3ccc(N4CCNCC4=O)cn3)nc2c(N2CCCCC2)n1` [Compound 194], the results for the IC50 at CDK2/cyclin A2 and on CDK4/cyclin D3 were ≥ 0.1 µM and < 0.01 µM, respectively.
In the same order, the values of `OCCN1CCc2nc(Nc3ncc4cc(CO)nc(N5CCCCC5)c4n3)ccc2C1` [Compound 135] are ≥ 0.1 µM and < 0.01 µM.
For `Cc1nc(Nc2ncc3cc([C@@H](C)O)nc(N4CCCCC4)c3n2)ccc1N1CCN(C)CC1` [Compound 54], the results for the IC50 on CDK2/cyclin A2 and on CDK4/cyclin D3 were ≥ 0.1 µM and < 0.01 µM, respectively.
Turning to `C[C@H](O)CN1CCN(Cc2ccc(Nc3ncc4cc([C@@H](C)O)nc(N5CCCCC5)c4n3)nc2)CC1` [Compound 183, (S)-1-(4-((6-((6-((R)-1-hydroxyethyl)-8-(piperidin-1-yl)pyrido[3,4-d]pyrimidin-2-yl)amino)pyridin-3-yl)methyl)piperazin-1-yl)propan-2-ol], the IC50 on CDK2/cyclin A2 was ≥ 0.1 µM; at CDK4/cyclin D3 it was < 0.01 µM.
The matching figures for `CC(O)c1cc2cnc(Nc3ccc(CN4CCN(C)CC4)cn3)nc2c(N2CC3CC3C2)n1` (stereo not shown) [Compound 157]: ≥ 0.1 µM and < 0.01 µM.
The matching figures for `C[C@@H](O)c1cc2cnc(Nc3ccc(CN4CCN(C)CC4)cn3)nc2c(N2CCCCC2)n1` [Compound 56]: ≥ 0.1 µM and < 0.01 µM.
Take `C[C@@H](O)c1cc2cnc(Nc3ccc4c(n3)CCNC4)nc2c(N2CCC(F)(F)CC2)n1` [Compound 80]: the IC50 is ≥ 0.1 µM on CDK2/cyclin A2 and < 0.01 µM on CDK4/cyclin D3.
As to `C[C@@H](O)c1cc2cnc(Nc3ccc4c(n3)CCN(C(=O)[C@@H]3CCCN3C)C4)nc2c(N2C3CCC2CC3)n1` [Compound 223], the IC50 at CDK2/cyclin A2 is ≥ 0.1 µM; at CDK4/cyclin D3, < 0.01 µM.
For the compound `C[C@@H](O)c1cc2cnc(Nc3ccc4c(n3)CCN(C(=O)Cc3cccnc3)C4)nc2c(N2CCCCC2)n1` [Compound 330], the IC50 was ≥ 0.1 µM on CDK2/cyclin A2 and 0.01 to 0.1 µM on CDK4/cyclin D3.
In the same order, the values of `C[C@@H](O)c1cc2cnc(Nc3ccc4c(n3)CCN(C(=O)CN3CC[C@@H](O)C3)C4)nc2c(N2C3CCC2CC3)n1` [Compound 232] are ≥ 0.1 µM and < 0.01 µM.
In the same order, the values of `OCc1cc2cnc(Nc3ccc(N4CCNCC4)nn3)nc2c(N2CCCCC2)n1` [Compound 107] are ≥ 0.1 µM and < 0.01 µM.
The matching figures for `CCC(O)c1cc2cnc(Nc3ccc(CN4CCN(C)CC4)cn3)nc2c(N2CCCCC2)n1` (stereo not shown) [Compound 146]: ≥ 0.1 µM and < 0.01 µM.
